# Where two headings read alike, the source gives them in different places.
# What was measured:
# glioblastoma = test system: glioblastoma; parameters: method as in earlier work; settings: study discontinued; cited from earlier work
# rhabdomyosarcoma cells = test system: rhabdomyosarcoma cells; parameters: method as in PMID 32200036; settings: cited from earlier work
# [1] = test system: patients with newly diagnosed glioblastoma
# Text: The phase Ib, dose-escalation part of this study explored escalating oral doses of trotabresib in combination with TMZ in the adjuvant setting and with TMZ plus RT in the concomitant setting. […] Dose-escalation decisions were made by the safety review committee, based on all available safety, pharmacokinetics, pharmacodynamics, and preliminary efficacy information, and a calculation of risk assessment using a Bayesian logistic regression model.
# The primary endpoints of the study were to determine the safety and tolerability, maximum tolerated dose, and/or recommended phase II dose (RP2D) of trotabresib in combination with TMZ as adjuvant therapy, and with TMZ and RT as concomitant therapy. […] Trotabresib pharmacodynamics was an exploratory endpoint.
# Adverse events (AEs) were classified using the Medical Dictionary for Regulatory Activities v18.1 or higher system organ class and preferred term. Severity of AEs was graded based on the patient’s symptoms according to the National Cancer Institute Common Terminology Criteria for Adverse Events v5.0.[35] Dose-limiting toxicities (DLTs) were defined as any of the toxicities described in Supplementary Table S2 occurring within the DLT assessment period (cycle 1 [28 days]), unless the event could clearly be determined to be unrelated to trotabresib. Screening MRI scans were performed after surgical resection and within 28 days (+3 days) prior to initiation of study treatment. Subsequent tumor assessments by MRI or CT were performed at week 10 during the concomitant treatment period and at the end of every other treatment cycle from cycle 2 onwards during the adjuvant and trotabresib monotherapy treatment periods. Best overall response (BOR) was evaluated as complete response (CR), partial response (PR), SD, progressive disease (PD), or not evaluable, according to Response Assessment in Neuro-Oncology criteria for high-grade glioma.[36] Plasma samples were collected during the first treatment cycle for investigation of trotabresib pharmacokinetics and pharmacodynamics. Plasma pharmacokinetic parameters assessed included peak plasma concentration (Cmax), time to peak plasma concentration (tmax), area under the plasma concentration–time curve (AUC), and terminal half-life (t½). Pharmacodynamic markers assessed included blood levels of CCR1 and HEXIM1 mRNA, which are established markers of BET inhibitor target engagement.[17],[22],[37],[38]
# [2] = adjuvant overall (N = 18), related to labelled drug(s)
# [3] = concomitant overall (N = 14), related to labelled drug(s)
smiles,measurement,setting,value
Cc1sc2c(c1C)C(c1ccc(Cl)cc1)=N[C@@H](CC(=O)Nc1ccc(O)cc1)c1nnc(C)n1-2 [OTX015],Clinical activity (primary endpoint 6-month PFS),glioblastoma,lack of clinical activity
same,Antitumor activity as a single agent,rhabdomyosarcoma cells,demonstrated antitumor activity as a single agent
same,Effect on ionizing radiation,rhabdomyosarcoma cells,potentiated the effects of ionizing radiation
"Cn1nnc2c(C(N)=O)ncn2c1=O [TMZ, temozolomide]","ALT increased TRAE, grade 3/4",[1]; [2],1 (6) n (%)
same,"AST increased TRAE, any grade",[1]; [2],2 (11) n (%)
same,"AST increased TRAE, grade 3/4",[1]; [2],0 n (%)
same,"Acneiform dermatitis TRAE, any grade",[1]; [2],1 (6) n (%)
same,"Acneiform dermatitis TRAE, grade 3/4",[1]; [2],0 n (%)
same,"Anemia TRAE, any grade",[1]; [2],3 (17) n (%)
same,"Anemia TRAE, grade 3/4",[1]; [2],0 n (%)
same,"Any TRAE, any grade",[1]; [2],17 (94) n (%)
same,"Any TRAE, grade 3/4",[1]; [2],10 (56) n (%)
same,"Asthenia TRAE, any grade",[1]; [2],6 (33) n (%)
same,"Asthenia TRAE, grade 3/4",[1]; [2],1 (6) n (%)
same,"Blood bilirubin increased TRAE, any grade",[1]; [2],0 n (%)
same,"Blood bilirubin increased TRAE, grade 3/4",[1]; [2],0 n (%)
same,"Decreased appetite TRAE, any grade",[1]; [2],6 (33) n (%)
same,"Decreased appetite TRAE, grade 3/4",[1]; [2],0 n (%)
same,"Diarrhea TRAE, any grade",[1]; [2],5 (28) n (%)
same,"Diarrhea TRAE, grade 3/4",[1]; [2],0 n (%)
same,"Dysgeusia TRAE, any grade",[1]; [2],4 (22) n (%)
same,"Dysgeusia TRAE, grade 3/4",[1]; [2],0 n (%)
same,"Dyspepsia TRAE, any grade",[1]; [2],2 (11) n (%)
same,"Dyspepsia TRAE, grade 3/4",[1]; [2],0 n (%)
same,"Fatigue TRAE, any grade",[1]; [2],2 (11) n (%)
same,"Fatigue TRAE, grade 3/4",[1]; [2],0 n (%)
same,"Hyperbilirubinemia TRAE, any grade",[1]; [2],3 (17) n (%)
same,"Hyperbilirubinemia TRAE, grade 3/4",[1]; [2],0 n (%)
same,"Hyperglycemia TRAE, any grade",[1]; [2],1 (6) n (%)
same,"Hyperglycemia TRAE, grade 3/4",[1]; [2],0 n (%)
same,"Hypophosphatemia TRAE, any grade",[1]; [2],1 (6) n (%)
same,"Hypophosphatemia TRAE, grade 3/4",[1]; [2],0 n (%)
same,"Hypotension TRAE, any grade",[1]; [2],0 n (%)
same,"Hypotension TRAE, grade 3/4",[1]; [2],0 n (%)
same,"Insomnia TRAE, any grade",[1]; [2],1 (6) n (%)
same,"Insomnia TRAE, grade 3/4",[1]; [2],0 n (%)
same,"Intracranial hemorrhage TRAE, any grade",[1]; [2],0 n (%)
same,"Intracranial hemorrhage TRAE, grade 3/4",[1]; [2],0 n (%)
same,"Leukopenia TRAE, any grade",[1]; [2],2 (11) n (%)
same,"Leukopenia TRAE, grade 3/4",[1]; [2],0 n (%)
same,"Lymphopenia TRAE, any grade",[1]; [2],2 (11) n (%)
same,"Lymphopenia TRAE, grade 3/4",[1]; [2],1 (6) n (%)
same,"Nausea TRAE, any grade",[1]; [2],12 (67) n (%)
same,"Nausea TRAE, grade 3/4",[1]; [2],0 n (%)
same,"Neutropenia TRAE, any grade",[1]; [2],7 (39) n (%)
same,"Neutropenia TRAE, grade 3/4",[1]; [2],4 (22) n (%)
same,"Pruritus TRAE, any grade",[1]; [2],0 n (%)
same,"Pruritus TRAE, grade 3/4",[1]; [2],0 n (%)
same,"Rash TRAE, any grade",[1]; [2],1 (6) n (%)
same,"Rash TRAE, grade 3/4",[1]; [2],0 n (%)
same,"Seizure TRAE, any grade",[1]; [2],0 n (%)
same,"Seizure TRAE, grade 3/4",[1]; [2],0 n (%)
same,"Thrombocytopenia TRAE, any grade",[1]; [2],13 (72) n (%)
same,"Thrombocytopenia TRAE, grade 3/4",[1]; [2],9 (50) n (%)
same,"Vomiting TRAE, any grade",[1]; [2],7 (39) n (%)
same,"Vomiting TRAE, grade 3/4",[1]; [2],0 n (%)
same,"ALT increased TRAE, any grade",[1]; [3],1 (7) n (%)
same,"ALT increased TRAE, grade 3/4",[1]; [3],1 (7) n (%)
same,"AST increased TRAE, any grade",[1]; [3],1 (7) n (%)
same,"AST increased TRAE, grade 3/4",[1]; [3],0 n (%)
same,"Acneiform dermatitis TRAE, any grade",[1]; [3],2 (14) n (%)
same,"Acneiform dermatitis TRAE, grade 3/4",[1]; [3],0 n (%)
same,"Anemia TRAE, any grade",[1]; [3],4 (29) n (%)
same,"Anemia TRAE, grade 3/4",[1]; [3],2 (14) n (%)
same,"Any TRAE, any grade",[1]; [3],14 (100) n (%)
same,"Any TRAE, grade 3/4",[1]; [3],9 (64) n (%)
same,"Asthenia TRAE, any grade",[1]; [3],4 (29) n (%)
same,"Asthenia TRAE, grade 3/4",[1]; [3],0 n (%)
same,"Blood bilirubin increased TRAE, any grade",[1]; [3],1 (7) n (%)
same,"Blood bilirubin increased TRAE, grade 3/4",[1]; [3],0 n (%)
same,"Decreased appetite TRAE, any grade",[1]; [3],4 (29) n (%)
same,"Decreased appetite TRAE, grade 3/4",[1]; [3],0 n (%)
same,"Diarrhea TRAE, any grade",[1]; [3],3 (21) n (%)
same,"Diarrhea TRAE, grade 3/4",[1]; [3],0 n (%)
same,"Dysgeusia TRAE, any grade",[1]; [3],4 (29) n (%)
same,"Dysgeusia TRAE, grade 3/4",[1]; [3],0 n (%)
same,"Dyspepsia TRAE, any grade",[1]; [3],2 (14) n (%)
same,"Dyspepsia TRAE, grade 3/4",[1]; [3],0 n (%)
same,"Fatigue TRAE, any grade",[1]; [3],5 (36) n (%)
same,"Fatigue TRAE, grade 3/4",[1]; [3],1 (7) n (%)
same,"Hyperbilirubinemia TRAE, any grade",[1]; [3],2 (14) n (%)
same,"Hyperbilirubinemia TRAE, grade 3/4",[1]; [3],0 n (%)
same,"Hyperglycemia TRAE, any grade",[1]; [3],0 n (%)
same,"Hyperglycemia TRAE, grade 3/4",[1]; [3],0 n (%)
same,"Hypophosphatemia TRAE, any grade",[1]; [3],1 (7) n (%)
same,"Hypophosphatemia TRAE, grade 3/4",[1]; [3],0 n (%)
same,"Hypotension TRAE, any grade",[1]; [3],0 n (%)
same,"Hypotension TRAE, grade 3/4",[1]; [3],0 n (%)
same,"Insomnia TRAE, any grade",[1]; [3],0 n (%)
same,"Insomnia TRAE, grade 3/4",[1]; [3],0 n (%)
same,"Intracranial hemorrhage TRAE, any grade",[1]; [3],0 n (%)
same,"Intracranial hemorrhage TRAE, grade 3/4",[1]; [3],0 n (%)
same,"Leukopenia TRAE, any grade",[1]; [3],1 (7) n (%)
same,"Leukopenia TRAE, grade 3/4",[1]; [3],0 n (%)
same,"Lymphopenia TRAE, any grade",[1]; [3],3 (21) n (%)
same,"Lymphopenia TRAE, grade 3/4",[1]; [3],1 (7) n (%)
same,"Nausea TRAE, any grade",[1]; [3],11 (79) n (%)
same,"Nausea TRAE, grade 3/4",[1]; [3],0 n (%)
same,"Neutropenia TRAE, any grade",[1]; [3],6 (43) n (%)
same,"Neutropenia TRAE, grade 3/4",[1]; [3],4 (29) n (%)
same,"Pruritus TRAE, any grade",[1]; [3],0 n (%)
same,"Pruritus TRAE, grade 3/4",[1]; [3],0 n (%)
same,"Rash TRAE, any grade",[1]; [3],0 n (%)
same,"Rash TRAE, grade 3/4",[1]; [3],0 n (%)
same,"Seizure TRAE, any grade",[1]; [3],0 n (%)
same,"Seizure TRAE, grade 3/4",[1]; [3],0 n (%)
same,"Thrombocytopenia TRAE, any grade",[1]; [3],10 (71) n (%)
same,"Thrombocytopenia TRAE, grade 3/4",[1]; [3],7 (50) n (%)
same,"Vomiting TRAE, any grade",[1]; [3],8 (57) n (%)
same,"Vomiting TRAE, grade 3/4",[1]; [3],0 n (%)
same,"ALT increased TRAE, any grade","[1]; human, in vivo",2 (11) n (%)
same,"TEAEs leading to discontinuation of the labelled study drug(s), patients","[1]; human, in vivo",2 (11) 2 (11) 2 (11) n (%)
same,"TRAEs leading to discontinuation of TMZ, related to labelled drug(s)","[1]; human, in vivo",1 (6) 1 (6) 1 (6) n (%)
same,"TRAEs leading to discontinuation of any study drug, related to labelled drug(s)","[1]; human, in vivo",1 (6) 1 (6) 1 (6) n (%)
same,"TRAEs leading to discontinuation of trotabresib, related to labelled drug(s)","[1]; human, in vivo",1 (6) 1 (6) 1 (6) n (%)

# Reference: article PMC9653173, “Trotabresib (CC-90010) in combination with adjuvant temozolomide or concomitant temozolomide plus radiotherapy in patients with newly diagnosed glioblastoma” (Neuro-Oncology Advances, 2022)
